In patent publication US20060241143A1, “Combination of paroxetine and 2-methoxy-5-(5-trifluoromethyl-tetrazol-1-yl-benzyl)-(2s-phenyl-piperidin-3s-yl)-amine for treatment of depression and/or anxiety” (priority 2003, published 2006):

Tested on: mongolian gerbils
Assay: gerbil social interaction model (time spent in active social interactions)
Type: in vivo
Settings: 0.03 mg/kg i.p. (as free base), one hour after administration
Protocol: Paroxetine hydrochloride hemihydrate (0.3 mg/kg p.o of the paroxetine measured as the free base), 2-methoxy-5-(5-trifluoromethyl-tetrazol-1-yl-benzyl)]-(2S-phenyl-piperidin-3S-yl)-amine dihydrochloride (hereinafter compound A) (0.03 mg/kg i.p of the compound A measured as the free base) and a combination of paroxetine (0.3 mg/kg p.o. of the paroxetine measured as the free base) and compound A (0.03 mg/kg i.p. of the compound A measured as the free base) were administered independently in mongolian gerbils to assess the effect on time spent in active social interactions.
The results obtained one hour after administration, expressed as a percentage variation of the time spent in active social interactions by each animal in respect to the value obtained by treatment of control animals, are summarised in table 1.

## COc1ccc(-n2nnnc2C(F)(F)F)cc1CN[C@H]1CCCN[C@H]1c1ccccc1.Cl.Cl [Compound A]
  % Variation of the time spent in active social interactions in respect to control animals: +19.9%
